# Where a name gives a salt, the structure may show the parent alone. Read-outs that look alike come from different tables or passages of the source.
# Legend:
# zGlyR α1 + zGlyRβb = zGlyR α1 + zGlyRβb (Danio rerio, UniProt O93430+Q6DC22); experiment: two-electrode voltage-clamp of Xenopus oocytes expressing heteromeric zebrafish α1βb GlyR; assay type: cell-based
# Protocol: (§1) To assess the drug sensitivity of GlyRs, we employed electrophysiology using Xenopus oocytes.
# (§2) Full-length cDNAs encoding zebrafish GlyR α1 and βb and human GlyR α1 and β subunits were used in this study. Capped cRNAs for expression in Xenopus laevis oocytes were synthesized from linearized templates using SP6 mMessage mMachine SP6 transcription kit (Thermo Fisher Scientific) as described previously. Oocytes were injected with five femtomoles of cRNA using a Nanoject II (Drummond Scientific). Oocytes were moved to 48-well plates in Barth’s solution (88 mM NaCl, 1 mM KCl, 2.4 mM NaHCO3, 0.33 mM Ca (NO3)2, 0.41 mM CaCl2, 0.82 mM MgSO4, 10 mM HEPES at pH 7.5 with NaOH, supplemented with 50 µg/ml gentamicin and 100 units/ml penicillin/streptomycin) and incubated at 18 °C for 24–48 h prior to recording. Oocyte recording solution (90 mM NaCl, 1 mM KCl, 2 mM CaCl2, 1 mM MgCl2, 10 mM HEPES at pH 7.5 with NaOH) and drug solutions of seven different concentrations were flew into the oocyte chamber using a BPS-8 solution switcher (ALA Scientific). Borosilicate electrodes had resistances of ~ 2.0 MΩ when filed with 3 M KCl. […] Signals were low-pass filtered at 10 Hz, and sampled at 100 Hz. […] Statistical significance was assessed using the pair-wise analysis of variance.
# zebrafish embryos [1] = assay type: in vivo, zebrafish (Danio rerio)
# Protocol: To this end, three zebrafish embryos were treated with a drug (10 ~ 100 μM) in a well of 96-well plate at the onset of 24 hpf and then assayed for touch responses at 27 and 48 hpf, when zebrafish embryos show tactile-induced short-distance forward movement and escape swimming, respectively.
# Two chemical libraries from Kyoto University and Nagoya University, composed of total ~ 1,000 bioactive compounds, were used in this study. The 2 µl of chemical compounds (1 ~ 10 mM) dissolved in DMSO were diluted to 200 µl with E3 medium (5 mM NaCl, 0.17 mM KCl, 0.33 mM CaCl2, 0.33 mM MgSO4) and transferred to 96-well plate. Three zebrafish embryos (24 hpf) were transferred into each well of the plate and incubated in a 28.5 °C incubator. At 27 hpf, three embryos with a small amount of drug solution were transferred to a 90-mm dish containing 15 ml of E3 medium and subjected to touch response using forceps under a dissection microscope Leica MZ16. After this assay, embryos with a small amount of E3 solution were transferred back to the drug solution in 96-well plate and incubated in the 28.5 °C incubator. At 48 hpf, embryos were transferred to a 90-mm dish containing 15 ml of E3 medium again and subjected to the touch response.
# hGlyR α1 + hGlyRβb = target: T1, hGlyR α1 + hGlyRβb (Homo sapiens, UniProt P23415+P48167); experiment: two-electrode voltage-clamp of Xenopus oocytes expressing heteromeric human α1β GlyR; assay type: cell-based
# T1 construct: Full-length cDNAs encoding zebrafish GlyR α1 and βb and human GlyR α1 and β subunits were used in this study; expressed in transfected cells; host or cells: Xenopus laevis oocytes injected with cRNA
# Protocol: as §1
# (§3) We also investigated whether niflumic acid blocks human GlyRs.
# as §2
# zebrafish embryos [2] = assay type: in vivo, zebrafish (Danio rerio); remark: listed apart in the source
# zGlyR α1 = target: T2, zGlyR α1 (Danio rerio, UniProt O93430); experiment: two-electrode voltage-clamp of Xenopus oocytes expressing homomeric zebrafish α1 GlyR; assay type: cell-based
# T2 construct: Full-length cDNAs encoding zebrafish GlyR α1 and βb and human GlyR α1 and β subunits were used in this study; expressed in transfected cells; host or cells: Xenopus laevis oocytes injected with cRNA
# T2 sequence (O93430 25-444): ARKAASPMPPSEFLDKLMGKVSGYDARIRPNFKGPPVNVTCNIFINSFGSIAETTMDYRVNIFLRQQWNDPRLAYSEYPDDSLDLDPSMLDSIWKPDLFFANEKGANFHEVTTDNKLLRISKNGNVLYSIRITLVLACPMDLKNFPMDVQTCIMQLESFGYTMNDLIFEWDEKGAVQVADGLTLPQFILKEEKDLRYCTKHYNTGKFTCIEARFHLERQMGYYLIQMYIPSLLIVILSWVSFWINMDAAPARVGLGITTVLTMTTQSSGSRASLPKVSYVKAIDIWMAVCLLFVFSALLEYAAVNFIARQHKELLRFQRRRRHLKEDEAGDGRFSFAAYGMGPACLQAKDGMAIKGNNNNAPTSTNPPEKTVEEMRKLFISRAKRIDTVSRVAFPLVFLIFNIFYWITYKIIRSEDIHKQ
# Protocol: as §1, §2
# zebrafish GlyRs = target: T3, zebrafish GlyRs (Danio rerio, UniProt O93430); experiment: cell-based; assay type: cell-based; conditions: rounded value in discussion; read-out: IC50 values of GlyRs expressed in Xenopus oocytes
# T3 sequence (O93430 25-444): T2 sequence (O93430 25-444)
# Protocol: as §2
# hGlyR α1 = target: T4, hGlyR α1 (Homo sapiens, UniProt P23415); experiment: two-electrode voltage-clamp of Xenopus oocytes expressing homomeric human α1 GlyR; assay type: cell-based
# T4 construct: Full-length cDNAs encoding zebrafish GlyR α1 and βb and human GlyR α1 and β subunits were used in this study; expressed in transfected cells; host or cells: Xenopus laevis oocytes injected with cRNA
# T4 sequence (P23415 29-457): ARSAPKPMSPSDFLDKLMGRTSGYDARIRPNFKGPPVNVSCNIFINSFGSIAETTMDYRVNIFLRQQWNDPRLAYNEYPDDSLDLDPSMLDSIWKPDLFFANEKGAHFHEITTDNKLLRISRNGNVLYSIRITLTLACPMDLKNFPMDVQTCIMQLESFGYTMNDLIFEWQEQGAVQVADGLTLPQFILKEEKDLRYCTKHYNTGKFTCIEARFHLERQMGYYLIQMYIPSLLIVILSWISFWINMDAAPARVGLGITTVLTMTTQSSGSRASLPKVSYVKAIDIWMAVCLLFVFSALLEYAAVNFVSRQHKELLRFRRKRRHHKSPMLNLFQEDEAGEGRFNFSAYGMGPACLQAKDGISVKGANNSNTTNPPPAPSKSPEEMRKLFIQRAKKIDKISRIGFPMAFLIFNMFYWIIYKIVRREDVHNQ
# Protocol: as §1, §3, §2
# homomeric α GlyRs = conditions: mammals; cited from earlier work
# zebrafish embryos [3] = experiment: video recording of zebrafish touch response at 48 hpf in the presence of drug; assay type: in vivo, zebrafish (Danio rerio); conditions: for tactile response of zebrafish embryos at 48 hpf: bath application 30 min: 70 μM strychnine, 5 mM picrotoxin, 200 μM nifedipine, 500 μM niflumic acid; for drug concentration efficient for inducing abnormal touch response: zebrafish embryos 48 hpf, bath application
# Text: Tactile-evoked zebrafish movements in the presence of control 1% DMSO or drug were video recorded at 48 hpf using a dissection microscope. Touch responses elicited by tactile stimulation delivered to the tail with forceps were captured with a high-speed CCD camera at 200 frames per second (HAS-220, Ditect) as described previously.
# heteromeric αβ GlyRs = conditions: mammals; cited from earlier work
# [4] = statement in discussion, no reference given; cited from earlier work
# [5] = with 200 μM glycine, mean ± SEM, 10 oocytes
# [6] = drug 10 ~ 100 μM, 1% DMSO, from 24 hpf, touch responses at 27 and 48 hpf
# [7] = purchased drugs, several different concentrations
# [8] = read-out: IC50 of inhibition of glycine current, with 200 μM glycine, mean ± SEM, 10 oocytes
# T1 sequence (P48167 23-497, one chain of several): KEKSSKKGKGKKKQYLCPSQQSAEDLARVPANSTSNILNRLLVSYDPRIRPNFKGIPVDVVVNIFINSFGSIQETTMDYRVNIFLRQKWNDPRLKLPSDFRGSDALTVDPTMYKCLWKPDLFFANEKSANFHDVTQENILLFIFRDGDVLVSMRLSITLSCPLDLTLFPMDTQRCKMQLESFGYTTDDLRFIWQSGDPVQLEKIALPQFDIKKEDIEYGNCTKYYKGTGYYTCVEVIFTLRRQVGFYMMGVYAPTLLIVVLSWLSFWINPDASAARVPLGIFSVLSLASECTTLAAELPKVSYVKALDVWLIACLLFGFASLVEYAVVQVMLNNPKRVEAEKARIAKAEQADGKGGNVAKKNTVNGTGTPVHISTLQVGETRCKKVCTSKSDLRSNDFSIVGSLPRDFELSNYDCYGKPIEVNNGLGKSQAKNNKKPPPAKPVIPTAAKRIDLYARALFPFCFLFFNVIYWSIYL
# zGlyR α1 + zGlyRβb, sequence (Q6DC22 entry or part of it, one chain of several): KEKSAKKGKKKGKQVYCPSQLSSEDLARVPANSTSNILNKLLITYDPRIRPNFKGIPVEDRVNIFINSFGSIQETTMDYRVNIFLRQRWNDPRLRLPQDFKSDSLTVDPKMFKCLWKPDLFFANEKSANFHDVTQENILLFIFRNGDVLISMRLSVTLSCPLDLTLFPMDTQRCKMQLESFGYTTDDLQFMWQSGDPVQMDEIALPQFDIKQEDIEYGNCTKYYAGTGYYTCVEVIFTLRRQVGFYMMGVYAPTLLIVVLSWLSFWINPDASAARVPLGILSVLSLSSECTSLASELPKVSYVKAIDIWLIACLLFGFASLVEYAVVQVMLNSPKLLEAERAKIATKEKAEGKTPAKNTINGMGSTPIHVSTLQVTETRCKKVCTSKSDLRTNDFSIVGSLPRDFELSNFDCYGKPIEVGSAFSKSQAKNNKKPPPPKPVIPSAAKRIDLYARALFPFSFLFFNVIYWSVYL
compound,measurement,setting,value
COC(=O)C1=C(C)NC(C)=C(C(=O)OC)C1c1ccccc1[N+](=O)[O-] [Nifedipine],Hill coeff of drug-mediated inhibition,zGlyR α1 + zGlyRβb,0.4 ± 0.0
same,IC50,zGlyR α1 + zGlyRβb,162 ± 24 µM
same,Response 1st screening,"zebrafish embryos [1]; zebrafish, in vivo",Body shrinkage
same,IC50,hGlyR α1 + hGlyRβb,130 ± 27 µM
same,Hill coeff of drug-mediated inhibition,hGlyR α1 + hGlyRβb; [5],0.9 ± 0.2
same,Response 2nd screening,"zebrafish embryos [2]; zebrafish, in vivo",Body shrinkage
same,IC50,zGlyR α1,239 ± 38 µM
same,Hill coeff of drug-mediated inhibition,zGlyR α1; [5],0.5 ± 0.1
same,IC50,zebrafish GlyRs,200 µM
same,IC50,hGlyR α1,171 ± 30 µM
same,Hill coeff of drug-mediated inhibition,hGlyR α1; [5],1.1 ± 0.2
O=c1oc2ccccc2c(O)c1Cc1c(O)c2ccccc2oc1=O [Dicumarol],Response 1st screening,zebrafish embryos [1]; [6],Weird contraction
same,Response 2nd screening,zebrafish embryos [2]; [7],Normal
CCCCCC[C@H]1C(=O)O[C@H](C)[C@H](NC(=O)c2cccc(NC=O)c2O)C(=O)O[C@@H](C)[C@@H]1OC(=O)CC(C)C [Antimycin A],Response 1st screening,zebrafish embryos [1]; [6],Weird contraction
same,Response 2nd screening,zebrafish embryos [2]; [7],Normal
CC(N)CCCC(C)(C)O (stereo not shown) [Heptaminol hydrochloride],Response 1st screening,zebrafish embryos [1]; [6],Body shrinkage
same,Response 2nd screening,zebrafish embryos [2]; [7],Normal
"NCC(=O)O [glycine, Glycine]",Hill coefficient of glycine-dependent gating,zGlyR α1 + zGlyRβb,2.5 ± 0.2
same,EC50,zGlyR α1 + zGlyRβb; read-out: EC50 of glycine-dependent gating,163 µM
same,Hill coefficient of glycine-dependent gating,hGlyR α1 + hGlyRβb,3.2 ± 0.2
same,Hill coefficient of glycine-dependent gating,"zGlyR α1; mean ± SEM, 10 oocytes",2.7 ± 0.1
same,EC50,"zGlyR α1; mean ± SEM, 10 oocytes, read-out: EC50 of glycine-dependent gating",112 ± 10 µM
same,Hill coefficient of glycine-dependent gating,hGlyR α1,2.9 ± 0.1
COc1ccc(Cc2nccc3cc(OC)c(OC)cc23)cc1OC [Papaverine hydrochloride],Response 1st screening,zebrafish embryos [1]; [6],Weird contraction
same,Response 2nd screening,zebrafish embryos [2]; [7],Normal
Picrotoxin,concentration of picrotoxin that blocks homomeric α GlyRs,homomeric α GlyRs,~ 10 μM
same,Hill coeff of drug-mediated inhibition,zGlyR α1 + zGlyRβb,0.9 ± 0.0
same,IC50,zGlyR α1 + zGlyRβb; read-out: IC50 of inhibition of glycine current,6.4 ± 0.3 µM
same,Response 1st screening,zebrafish embryos [1]; [6],failed to identify it
same,IC50,hGlyR α1 + hGlyRβb; [8],94 µM
same,Hill coeff of drug-mediated inhibition,hGlyR α1 + hGlyRβb; [5],**0.5 ± 0.1
same,tactile response of zebrafish embryos at 48 hpf,zebrafish embryos [3],shrinkage of the body
same,drug concentration efficient for inducing abnormal touch response,zebrafish embryos [3],5 mM
same,picrotoxin necessary to block heteromeric αβ GlyRs compared with homomeric α GlyRs,heteromeric αβ GlyRs,ten folds more
same,IC50,zGlyR α1; [8],6.1 ± 0.3 µM
same,Hill coeff of drug-mediated inhibition,zGlyR α1; [5],1.2 ± 0.1
same,IC50,zebrafish GlyRs,6 µM
same,IC50,hGlyR α1; [8],7.2 ± 0.9 µM
same,Hill coeff of drug-mediated inhibition,hGlyR α1; [5],0.9 ± 0.1
Cc1c(-c2ccccc2)oc2c(C(=O)OCCN3CCCCC3)cccc2c1=O [Flavoxate hydrochloride],Response 1st screening,zebrafish embryos [1]; [6],Weird contraction
same,Response 2nd screening,zebrafish embryos [2]; [7],Normal
O=C(O)c1cccnc1Nc1cccc(C(F)(F)F)c1 [Niflumic acid],IC50,zGlyR α1 + zGlyRβb,426 µM
same,Hill coeff of drug-mediated inhibition,zGlyR α1 + zGlyRβb; [5],0.9 ± 0.1
same,Response 1st screening,zebrafish embryos [1]; [6],Weird contraction
same,solubility in water,[4],insoluble to water
same,IC50,hGlyR α1 + hGlyRβb,930 ± 111 µM
same,Hill coeff of drug-mediated inhibition,hGlyR α1 + hGlyRβb; [5],1.1 ± 0.1
same,Response 2nd screening,zebrafish embryos [2]; [7],Body shrinkage
same,tactile response of zebrafish embryos at 48 hpf,zebrafish embryos [3],touch-evoked shrinkage of the body
same,drug concentration efficient for inducing abnormal touch response,zebrafish embryos [3],0.5 mM
same,IC50,zGlyR α1,801 ± 91 µM
same,Hill coeff of drug-mediated inhibition,zGlyR α1; [5],0.5 ± 0.1
same,IC50,zebrafish GlyRs,400 µM
same,IC50,hGlyR α1,1070 µM
same,Hill coeff of drug-mediated inhibition,hGlyR α1; [5],1.1 ± 0.2
Cl.Cl.c1ccc2c3c([nH]c2c1)C1C2CCC(C4CCCNC42)N1CC3 (stereo not shown) [Nitrarine dihydrochloride],Response 1st screening,zebrafish embryos [1]; [6],Weird contraction
same,Response 2nd screening,zebrafish embryos [2]; [7],Normal
O=C1C[C@@H]2OCC=C3CN4CC[C@]56c7ccccc7N1[C@H]5[C@H]2[C@H]3C[C@H]46 [Strychnine],Response 1st screening,zebrafish embryos [1]; [6],Body shrinkage
same,Hill coeff of drug-mediated inhibition,hGlyR α1 + hGlyRβb,0.8 ± 0.1
same,IC50,hGlyR α1 + hGlyRβb,0.092 ± 0.019 µM
same,Response 2nd screening,zebrafish embryos [2]; [7],Body shrinkage
same,tactile response of zebrafish embryos at 48 hpf,zebrafish embryos [3],bilateral trunk contractions resulting in the shrinkage of the body
same,Hill coeff of drug-mediated inhibition,zGlyR α1,0.7 ± 0.2
same,Hill coeff of drug-mediated inhibition,hGlyR α1,1.0 ± 0.1
same,IC50,hGlyR α1,0.072 ± 0.012 µM
Cc1cccc(Nc2ccccc2C(=O)O)c1C [Mefenamic acid],Response 1st screening,zebrafish embryos [1]; [6],Body shrinkage
same,Response 2nd screening,zebrafish embryos [2]; [7],Normal
